Assay results from patent US7091040B1, “P450/acetaminophen genetically directed enzyme prodrug therapy (GDEPT)” (Innovata PLC, priority 1999, dated 2006).

Key:
[1] = Viability of H1A2 MZ cells (stably transfected with human CYP1A2) incubated with acetaminophen, trypan blue exclusion; details: Chinese hamster
Description: (§1) For cell viability experiments 200,000 cells per well were plated on 12 well plates (Beckton-Dickenson, Oxford, UK), using the medium and conditions required by the tumour cell line and allowed to adhere overnight. After this the cells were washed with PBS before the addition of acetaminophen in 0.1 ml PBS (concentrations of 0.1–20 mM acetaminophen were dissolved in PBS by sonication) and then maintained at 37° C. At the appropriate time points, cells were removed from the plates by trypsinisation and collected by centrifugation. Cell viability was measured as ability to exclude trypan blue. Cells were counted at ×100 magnification using an Improved Neubauer haemocytometer; all cell counts are the mean of duplicate determinations of five fields from duplicate experiments.
(§2) V79 MZ Chinese hamster cells were maintained in Dulbecco-Vogt's modified Eagle's Medium (DMEM) supplemented with 10% foetal calf serum 9FCS), 2 mM L-glutamine, penicillin (100 U/ml and streptomycin (100 μg/ml) (all tissue culture reagents were obtained from Gibco BRL, Paisley, UK). H1A2 MZ cells, which are V79 MZ cells transfected with the human CYP1A2 gene, were also maintained in supplemented DMEM with the addition of geneticin at a concentration of 4 mg/ml. SK-OV-3 cells were grown in DMEM supplemented with 15% FCS and 2 mM L-glutamine, without the addition of antibiotics. RPMI-1640 medium with 10% FCS, 2 mM L-glutamine, penicillin (100 U/ml) and streptomycin ([…]) was required by the HCT116 cells. These cell lines were maintained at 37° C. with 100% humidity and 5% CO2. […] At confluence cells were removed from tissue culture flasks by inubation with trypsin-EDTA for 5 min, diluted 1:3–1:6 in fresh medium and seeded onto fresh flasks. The tumour cell lines were obtained from the European Collection of Cell Cultures.

H1A2 MZ cells = assay: as above; details: H1A2 MZ cells; 0.1 mM acetaminophen; 6 h
Description: as §1, §2

SK-OV-3 cells = assay: Bystander effect on viability of SK-OV-3 cells co-cultured with H1A2 MZ cells in the presence of acetaminophen, trypan blue exclusion; format: cell-based, human; details: for viability at 4000 µM: Homo sapiens
Description: (§3) Tumour cells or V79 MZ cells (non transfected, parental cells) were co-cultured overnight with various mixtures of H1A2 MZ cells (as indicated in the Table), washed with PBS and incubated with 4 mM acetaminophen in PBS for 6 h at 37° C. the cells were then washed once with PBS and maintained for either 24 or 48 h in culture medium appropriate to each cell type, as detailed in the Methods section. At 0, 6, 24 or 48 h the cells were washed in PBS and viability of the mixed cell population determined by trypan blue exclusion. The data shown are mean values±SEM of 4 separate determinations. Statistical significance was determined at each time point by comparing viability measurements in the mixed cell populations with both the viability determined at 0 h and in the absence of H1A2 MZ cells in the mixture 2×2 contingency tables using the 2-tailed Chi-squared test with Yate's correction. Viability was determined in a total of 1500 cells at each time point. Levels of significance are indicated as **p<0.001; ***p<0.0001;
as §1, §2

HCT116 cells = assay: Bystander effect on viability of HCT116 cells co-cultured with H1A2 MZ cells in the presence of acetaminophen, trypan blue exclusion; format: cell-based, human; details: for viability at 4000 µM: Homo sapiens
Description: as §3, §1, §2

COS cells = assay: Viability of COS cells transiently transfected with mouse CYP1A2 versus non-transfected COS cells, tritiated thymidine incorporation; format: cell-based
Description: FIG. 1 is a graphical representation of an acetaminophen titration showing the sensitivity of COS cells transiently transfected with a vector incorporating mouse CYP1A2 and non-transfected control COS cells. Cell viability is monitored by tritiated thymidine incorporation;
FIG. 2 is a cell viability time course of COS cells transiently transfected with mouse CYP1A2 and non-transfected control COS cells over a 24 hr period.
Acetaminophen concentration is 10 mM. Cell viability is monitored by tritiated thymidine incorporation;
COS cells are plated at 1.5×10^5 per well in 6 well tissue culture dishes the evening before transfection. […] All tissue culture reagents can be obtained from Gibco BRL, Paisley, UK.
To the LPA/DNA complex, 200 μl of serum free medium is added to each LPA/DNA sample which is then gently added to the cells over a period of 3–4 seconds. Cells are returned to a 37° C. CO2 incubator for 6 hours. […]
Transfected COS cells are either exposed to various concentrations of acetaminophen or incubated in the presence of 10 mM acetaminophen and cell viability monitored with time. ^3H-thymidine (Amersham International UK, 100 Ci/mmol, 5 μCi per assay), is added to treated and control cultures and aliquots removed and acid precipitable counts assessed by liquid scintillation using a Beckton Liquid Scintillation Counter.

CC(=O)Nc1ccc(O)cc1 [acetaminophen]
viability at 6 h, 1 mM [1]: 62% | viability at 6 h, 4 mM [1]: 8% | cytotoxicity (H1A2 MZ cells): No cytotoxicity | viability at 4000 µM (SK-OV-3 cells; SK-OV-3, 0 h, SK-OV-3 cells + 5% H1A2 MZ cells, 4 mM acetaminophen in PBS, 0 h): 98 ± 1% | viability at 4000 µM (SK-OV-3 cells; SK-OV-3, 0 h, SK-OV-3 cells + 10% H1A2 MZ cells, 4 mM acetaminophen in PBS, 0 h): 98 ± 1% | viability at 4000 µM (SK-OV-3 cells; SK-OV-3, 0 h, SK-OV-3 cells + 25% H1A2 MZ cells, 4 mM acetaminophen in PBS, 0 h): 97 ± 1% | viability at 4000 µM (SK-OV-3 cells; SK-OV-3, 0 h, SK-OV-3 cells + 50% H1A2 MZ cells, 4 mM acetaminophen in PBS, 0 h): 98 ± 1% | viability at 4000 µM (SK-OV-3 cells; SK-OV-3, 0 h, SK-OV-3 cells, 0% H1A2 MZ cells, 4 mM acetaminophen in PBS, 0 h): 97 ± 1% | viability at 4000 µM (SK-OV-3 cells; SK-OV-3, 6 h, SK-OV-3 cells + 5% H1A2 MZ cells, 4 mM acetaminophen in PBS, 6 h): 55 ± 2% | viability at 4000 µM (SK-OV-3 cells; SK-OV-3, 6 h, SK-OV-3 cells + 10% H1A2 MZ cells, 4 mM acetaminophen in PBS, 6 h): 43 ± 7% | viability at 4000 µM (SK-OV-3 cells; SK-OV-3, 6 h, SK-OV-3 cells + 25% H1A2 MZ cells, 4 mM acetaminophen in PBS, 6 h): 22 ± 11% | viability at 4000 µM (SK-OV-3 cells; SK-OV-3, 6 h, SK-OV-3 cells + 50% H1A2 MZ cells, 4 mM acetaminophen in PBS, 6 h): 16 ± 9% | viability at 4000 µM (SK-OV-3 cells; SK-OV-3, 6 h, SK-OV-3 cells, 0% H1A2 MZ cells, 4 mM acetaminophen in PBS, 6 h): 98 ± 2% | viability at 4000 µM (SK-OV-3 cells; SK-OV-3, SK-OV-3 cells + 5% H1A2 MZ cells, 4 mM acetaminophen 6 h, then 24 h in culture medium): 0% | viability at 4000 µM (SK-OV-3 cells; SK-OV-3, SK-OV-3 cells + 10% H1A2 MZ cells, 4 mM acetaminophen 6 h, then 24 h in culture medium): 0% | viability at 4000 µM (SK-OV-3 cells; SK-OV-3, SK-OV-3 cells + 25% H1A2 MZ cells, 4 mM acetaminophen 6 h, then 24 h in culture medium): 0% | viability at 4000 µM (SK-OV-3 cells; SK-OV-3, SK-OV-3 cells + 50% H1A2 MZ cells, 4 mM acetaminophen 6 h, then 24 h in culture medium): 0% | viability at 4000 µM (SK-OV-3 cells; SK-OV-3, SK-OV-3 cells, 0% H1A2 MZ cells, 4 mM acetaminophen 6 h, then 24 h in culture medium): 96 ± 3% | Viability (%) (SK-OV-3 cells; SK-OV-3 cells + 5% H1A2 MZ cells, 4 mM acetaminophen 6 h, then 24 h in culture medium): zero | susceptibility to cytotoxicity produced by the activation of acetaminophen (SK-OV-3 cells; SK-OV-3 cells mixed with H1A2 MZ cells, 4 mM acetaminophen, 6 h): highly sensitive | Viability (%) (HCT116 cells; HCT116 cells + 5% H1A2 MZ cells, 4 mM acetaminophen 6 h, then 24 h in culture medium): zero | susceptibility to cytotoxicity produced by the activation of acetaminophen (HCT116 cells; HCT116 cells incubated with 5 and 10% H1A2 MZ cells, 4 mM acetaminophen, 6 h): disproportionate decrease in viability | viability at 4000 µM (HCT116 cells; HCT-116, 0 h, HCT116 cells + 5% H1A2 MZ cells, 4 mM acetaminophen in PBS, 0 h): 98 ± 1% | viability at 4000 µM (HCT116 cells; HCT-116, 0 h, HCT116 cells + 10% H1A2 MZ cells, 4 mM acetaminophen in PBS, 0 h): 98 ± 1% | viability at 4000 µM (HCT116 cells; HCT-116, 0 h, HCT116 cells + 25% H1A2 MZ cells, 4 mM acetaminophen in PBS, 0 h): 97 ± 1% | viability at 4000 µM (HCT116 cells; HCT-116, 0 h, HCT116 cells + 50% H1A2 MZ cells, 4 mM acetaminophen in PBS, 0 h): 98 ± 1% | viability at 4000 µM (HCT116 cells; HCT-116, 0 h, HCT116 cells, 0% H1A2 MZ cells, 4 mM acetaminophen in PBS, 0 h): 96 ± 1% | viability at 4000 µM (HCT116 cells; HCT-116, 6 h, HCT116 cells + 5% H1A2 MZ cells, 4 mM acetaminophen in PBS, 6 h): 69 ± 9% | viability at 4000 µM (HCT116 cells; HCT-116, 6 h, HCT116 cells + 10% H1A2 MZ cells, 4 mM acetaminophen in PBS, 6 h): 60 ± 6% | viability at 4000 µM (HCT116 cells; HCT-116, 6 h, HCT116 cells + 25% H1A2 MZ cells, 4 mM acetaminophen in PBS, 6 h): 56 ± 4% | viability at 4000 µM (HCT116 cells; HCT-116, 6 h, HCT116 cells + 50% H1A2 MZ cells, 4 mM acetaminophen in PBS, 6 h): 42 ± 6% | viability at 4000 µM (HCT116 cells; HCT-116, 6 h, HCT116 cells, 0% H1A2 MZ cells, 4 mM acetaminophen in PBS, 6 h): 96 ± 5% | viability at 4000 µM (HCT116 cells; HCT-116, HCT116 cells + 5% H1A2 MZ cells, 4 mM acetaminophen 6 h, then 24 h in culture medium): 0% | viability at 4000 µM (HCT116 cells; HCT-116, HCT116 cells + 10% H1A2 MZ cells, 4 mM acetaminophen 6 h, then 24 h in culture medium): 0% | viability at 4000 µM (HCT116 cells; HCT-116, HCT116 cells + 25% H1A2 MZ cells, 4 mM acetaminophen 6 h, then 24 h in culture medium): 0% | viability at 4000 µM (HCT116 cells; HCT-116, HCT116 cells + 50% H1A2 MZ cells, 4 mM acetaminophen 6 h, then 24 h in culture medium): 0% | viability at 4000 µM (HCT116 cells; HCT-116, HCT116 cells, 0% H1A2 MZ cells, 4 mM acetaminophen 6 h, then 24 h in culture medium): 96 ± 2% | extent of acetaminophen sensitivity over time (tritiated thymidine incorporation) (COS cells; 10 mM acetaminophen, transfected COS cells versus non-transfected control cells over 24 hrs): increases markedly during the first 4–8 hrs | sensitivity to acetaminophen (tritiated thymidine incorporation) (COS cells; acetaminophen titration, COS cells transfected with CYP1A2 (48 hrs expression) versus non-transfected control COS cells): significant increase in sensitivity
